The source of these data is patent US8076486B2, “Heteroaryl-substituted arylaminopyridine derivatives as MEK inhibitors” (Merck Serono S.A., priority 2006, dated 2011).

Test [1] concerns the target human MEK1 (Homo sapiens, UniProt Q02750, S218E/S222E). The experiment in a line: MEK-1 Enzyme Assay (LANCE-HTRF). The note with it: MEK-1 EE, ERK-2K52A substrate, 9 uM ATP, 1.5 hrs. The class given is biochemical. Here is the method: Assay 1: MEK-1 Enzyme Assay (LANCE-HTRF)
Inhibition of human MEK1 kinase activity was monitored with a homogenous, fluorescence-based assay. The assay uses time resolved fluorescence resonance energy transfer to probe for phosphorylation of ERK1 by MEK1. The detailed procedure is described in the following:
Constititutively active MEK-1 EE (150 ng/well) and ERK-2K52A (110 ng/well) were incubated in black, 384 well Optiplates (Perkin Elmer) for 1.5 hrs at room temperature, in the presence of increasing concentrations of inhibitors. The total reaction volume was 50 ul. The inhibitors were serial diluted in kinase buffer (9 uM ATP, 50 mM Tris-Hcl pH 8.0, 10 mM MgCl2, 1 mM DTT and 100 uM Na3VO4), to a final concentration of 1% DMSO. At the end of the incubation, the enzyme reaction was quenched by adding 50 ul of assay buffer containing 50 mM Tris-Hcl, 50 mM EDTA, 0.1% BSA and a mixture of 1.25 ug/mL europium labeled anti-phosphotyrosine mAb (Perkin Elmer) and 5 ug/mL of allophycocyanin labeled anti-GST antibody (CIS-US). Plates were agitated on a plate shaker for 30 minutes and the phosphorylation of the ERK-2K52A substrate was measured by homogeneous time resolved fluorescence (HTRF) at 340 nm excitation and […] emission filters on the VICTOR V fluorescence plate reader. Phosphorylation is expressed as a ratio of 665 nM signal×10,000/615 nM signal. To assess the inhibitory potential of the compounds, IC50-values were determined.

In test [2] the test system is Murine colon C26 cells. The test is described as follows: Tumor Cell Proliferation Assay (ATP Lite), C26. The conditions noted are these: Mus musculus, 96 h, 4 days, ATPlite. The class given is cell-based. Here is the method:
(§1) Assay 2: Tumor Cell Proliferation Assays (ATP Lite)
(§2) Murine colon C26 (1500 cells/well), human melanoma A375 (2000 cells/well), or human pancreatic MiaPaCa-2 cells (2000 cells/well) were plated in white, 96 well plates (Corning) in growth media (DMEM with 10% fetal bovine serum, 2 mM glutamine for C26 and MiaPaCa-2, and RPMI with 10% fetal bovine serum, 2 mM glutamine for A375) and cultured overnight at 37° C. in a humidified, 5% CO2 incubator. Inhibitors were serially diluted in 100% DMSO and subsequently added to the cells, in growth media, to reach a final concentration of 0.25% DMSO. The cells were incubated for 4 days in the presence of the test compounds and the proliferation was quantitated using the ATPlite cell proliferation kit (Packard).

The subject of test [3] is human pancreatic MiaPaCa-2 cells. The experiment in a line: Tumor Cell Proliferation Assay (ATP Lite), MiaPaCa-2. The class given is cell-based. The conditions noted are these: MIA PaCa-2, 96 h, 4 days, ATPlite, read-out: MiaPaCa2 cell proliferation IC50. On the procedure:
as §1, §2

Test [4] has as its system A375 Xenograft. The experiment in a line: Tumor Growth Inhibition in A375 Xenograft Studies (Malignant Melanoma Model). The note with it: A375 xenograft in male nude mice, to Day 14. The class given is in vivo, nude (nu/nu) mice. Here is the method:
In vivo Efficacy Evaluation: Tumor Growth Inhibition in A375 Xenograft Studies (Malignant Melanoma Model)
Male nude (nu/nu) mice (100 total, 24-26 g body wt) were purchased from Charles River Laboratories. Animals were injected subcutaneously above the right foreleg with 5×10^6 A375 cells in 100 ul of PBS. Tumors were measured with calipers 4, 7, 11 and 14 days after cells were implanted. Tumor length (l) and width (w) were measured and tumor volume was calculated with the equation l*w^2/2. At 16 days after cancer cells were implanted, tumors had reached an average volume of 93 mm^3, at which time the animals were sorted into 6 groups so that each group had the same mean tumor volume. The vehicle used for dosing the compound in suspension was 10% Tween 80 in water.
Treatments began on the afternoon of the 16th day after cancer cell injections, which was designated as Day 0. Tumor volume and body weight was measured for each animal 3 times per week until Day 14. On Day 14, all animals were euthanized, tumors removed and weighted.

In test [5] the test system is human melanoma A375 cells. The experiment in a line: Tumor Cell Proliferation Assay (ATP Lite), A375. It is filed as cell-based. The conditions noted are these: A-375, 96 h, 4 days, ATPlite. Here is the method:
as §1, §2

Chain of human MEK1 (Q02750 whole entry S218E/S222E): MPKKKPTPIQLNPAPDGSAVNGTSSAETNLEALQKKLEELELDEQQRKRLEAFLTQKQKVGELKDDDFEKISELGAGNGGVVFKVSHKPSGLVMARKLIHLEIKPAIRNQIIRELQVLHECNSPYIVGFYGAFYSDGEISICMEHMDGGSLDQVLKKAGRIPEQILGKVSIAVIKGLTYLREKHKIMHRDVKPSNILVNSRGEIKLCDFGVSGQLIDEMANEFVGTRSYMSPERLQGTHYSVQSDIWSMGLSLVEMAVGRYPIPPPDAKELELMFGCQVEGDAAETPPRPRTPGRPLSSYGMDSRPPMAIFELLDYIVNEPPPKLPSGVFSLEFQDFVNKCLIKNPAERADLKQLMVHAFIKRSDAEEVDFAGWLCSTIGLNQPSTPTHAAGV

As for `Nc1nnc(-c2ccncc2Nc2ccc(I)cc2F)o1` [Example 2, [4-(5-Amino-[1,3,4]oxadiazol-2-yl)-pyridin-3-yl]-(2-fluoro-4-iodo-phenyl)-amine], the IC50 in test [1], in test [2], in test [3] and in test [5] was not above 3000 nM each time. Moreover, the “effect on tumor growth” value was “significant tumor growth inhibition” in test [4] (dose of 0.5 mg/kg) and “tumor regression” in test [4] (dose of 10 mg/kg).

Turning to `Nc1nnc(-c2ccncc2Nc2ccc(Br)cc2F)o1` [Example 34, [4-(5-Amino-[1,3,4]oxadiazol-2-yl)-pyridin-3-yl]-(4-bromo-2-fluoro-phenyl)-amine], the IC50 in test [1], in test [2], in test [3] and in test [5] was not above 3000 nM each time.

In the case of `Nc1nnc(-c2ccncc2Nc2ccc(I)cc2F)s1` [Example 54, [4-(5-Amino-[1,3,4]thiadiazol-2-yl)-pyridin-3-yl]-(2-fluoro-4-iodo-phenyl)-amine], the IC50 in test [1], in test [2], in test [3] and in test [5] was not above 3000 nM in each case.

In the case of `Fc1cc(I)ccc1Nc1cnccc1-c1c[nH]nn1` [Example 64, N-(2-fluoro-4-iodophenyl)-4-(1H-1,2,3-triazol-4-yl)pyridin-3-amine], the IC50 in test [1], in test [2], in test [3] and in test [5] was not above 3000 nM in each case.

`Nc1nnc(-c2ccncc2Nc2ccc(Br)cc2Br)o1` [Example 14, [4-(5-Amino-[1,3,4]oxadiazol-2-yl)-pyridin-3-yl]-(2,4-dibromo-phenyl)-amine]: the IC50 in test [1], in test [2], in test [3] and in test [5] was not above 3000 nM in each case.

With `OCc1noc(-c2ccncc2Nc2ccc(I)cc2F)n1` [Example 38, {5-[3-(2-Fluoro-4-iodo-phenylamino)-pyridin-4-yl]-[1,2,4]oxadiazol-3-yl}-methanol], the IC50 in test [1] is not above 3000 nM; in test [2] it was not above 3000 nM; in test [3], 3000 to 25000 nM; in test [5] it was not above 3000 nM.

With `OCC(O)CNc1nnc(-c2ccncc2Nc2ccc(I)cc2F)o1` (centres unmarked) [Example 11, 3-{5-[3-(2-Fluoro-4-iodo-phenylamino)-pyridin-4-yl]-[1,3,4]oxadiazol-2-ylamino}-propane-1,2-diol], the IC50 in test [1], in test [2], in test [3] and in test [5] was not above 3000 nM each time.

As for `Fc1cc(I)ccc1Nc1cnccc1-c1nnn[nH]1` [Example 62, N-(2-fluoro-4-iodophenyl)-4-(1H-tetrazol-5-yl)pyridin-3-amine], the IC50 in test [1] was not above 3000 nM; in test [2] it was more than 25000 nM; in test [3] it was more than 25000 nM; in test [5] it was more than 25000 nM.

As for `Fc1cc(I)ccc1Nc1cnccc1-c1ncno1` [Example 37, (2-Fluoro-4-iodo-phenyl)-(4-[1,2,4]oxadiazol-5-yl-pyridin-3-yl)-amine], the IC50 in test [1], in test [2], in test [3] and in test [5] was not above 3000 nM each time.

As for `CN(C)c1nnc(-c2ccncc2Nc2ccc(I)cc2F)o1` [Example 42, [4-(5-Dimethylamino-[1,3,4]oxadiazol-2-yl)-pyridin-3-yl]-(2-fluoro-4-iodo-phenyl)-amine], the IC50 in test [1], in test [2], in test [3] and in test [5] was not above 3000 nM in each case.

As for `O=c1[nH]nc(-c2ccncc2Nc2ccc(I)cc2F)o1` [Example 1, 5-[3-(2-Fluoro-4-iodo-phenylamino)-pyridin-4-yl]-3H-[1,3,4]oxadiazol-2-one], the IC50 in test [1] was not above 3000 nM; in test [2], 3000 to 25000 nM; in test [3], 3000 to 25000 nM; in test [5], not above 3000 nM.

As to `Fc1cc(I)ccc1Nc1cnccc1-c1nnc(NCCN2CCCC2)o1` [Example 23, (2-Fluoro-4-iodo-phenyl)-{4-[5-(2-pyrrolidin-1-yl-ethylamino)-[1,3,4]oxadiazol-2-yl]-pyridin-3-yl}-amine], the IC50 in test [1], in test [2], in test [3] and in test [5] was not above 3000 nM each time.

`Fc1cc(I)ccc1Nc1cnccc1-c1nnc(NCCN2CCOCC2)o1` [Example 20, (2-Fluoro-4-iodo-phenyl)-{4-[5-(2-morpholin-4-yl-ethylamino)-[1,3,4]oxadiazol-2-yl]-pyridin-3-yl}-amine]: the IC50 in test [1], in test [2], in test [3] and in test [5] was not above 3000 nM each time.

With `Fc1cc(I)ccc1Nc1cnccc1-c1n[nH]c(=S)o1` [Example 3, 5-[3-(2-Fluoro-4-iodo-phenylamino)-pyridin-4-yl]-3H-[1,3,4]oxadiazole-2-thione], the IC50 in test [1] is not above 3000 nM; in test [2], 3000 to 25000 nM; in test [3], not above 3000 nM; in test [5], not above 3000 nM.

In the case of `Fc1cc(I)ccc1Nc1cncc(-c2ccccc2F)c1-c1c[nH]nn1` [Example 60, (2-Fluoro-4-iodo-phenyl)-[5-(2-fluoro-phenyl)-4-(1H-[1,2,3]triazol-4-yl)-pyridin-3-yl]-amine], the IC50 in test [1], in test [2], in test [3] and in test [5] was not above 3000 nM each time.

Regarding `Nc1nnc(-c2c(F)cncc2Nc2ccc(I)cc2F)o1` [Example 48, [4-(5-Amino-[1,3,4]oxadiazol-2-yl)-5-fluoro-pyridin-3-yl]-(2-fluoro-4-iodo-phenyl)-amine], the IC50 in test [1], in test [2], in test [3] and in test [5] was not above 3000 nM each time.

As to `CCOC(=O)c1nnc(-c2ccncc2Nc2ccc(I)cc2F)[nH]1` [Example 31, 5-[3-(2-Fluoro-4-iodo-phenylamino)-pyridin-4-yl]-4H-[1,2,4]triazole-3-carboxylic acid ethyl ester], the IC50 in test [1] was not above 3000 nM; in test [2], 3000 to 25000 nM; in test [3], 3000 to 25000 nM; in test [5], not above 3000 nM.

Consider `COC(=O)CNc1nnc(-c2ccncc2Nc2ccc(I)cc2F)o1` [Example 43, {5-[3-(2-Fluoro-4-iodo-phenylamino)-pyridin-4-yl]-[1,3,4]oxadiazol-2-ylamino}-acetic acid methyl ester], for which the IC50 in test [1] is not above 3000 nM; in test [2] it was not above 3000 nM; in test [3], 3000 to 25000 nM; in test [5], not above 3000 nM.
